Data on six compounds can be found in patent publication US6872745B2, “Antipicornaviral compounds and compositions, their pharmaceutical uses, and materials for their synthesis” (Agouron Pharmaceuticals, Inc., priority 2000, dated 2005).

The target of series [1] is T1, rhinovirus 3C protease, serotype 14 (Human rhinovirus 14, UniProt P03303).
T1 construct: Recombinant rhinovirus 3C proteases; made in house
The experiment in a line: Inhibition of rhinovirus 3C protease (FRET assay, enzyme start). It counts as biochemical. The following applies: HRV-14 3C protease, progress curves, read-out: Kobs/I. On the procedure:
Stock solutions (50 mM, in DMSO) of various compounds were prepared; dilutions were in the same solvent. Recombinant rhinovirus 3C proteases (see Birch et al., “Purification of recombinant human rhinovirus 14 3C protease expressed in Escherichia coli,” Protein Expr. Pur. (1995), vol. 6(5), 609-618) from serotypes 14, 16, and 2 were prepared by the following standard chromatographic procedures: (1) ion exchange using Q Sepharose Fast Flow from Pharmacia; (2) affinity chromatography using Affi-Gel Blue from Biorad; and (3) sizing using Sephadex G-100 from Pharmacia. Each assay sample contained 2% DMSO, 50 mM tris pH 7.6, 1 mM EDTA, a test compound at the indicated concentration, approximately 1 μM substrate, and 50-100 nM protease. The kobs/I values were obtained from reactions initiated by addition of enzyme rather than substrate. RVP activity was measured in the fluorescence resonance energy transfer assay. The substrate was (N-terminal) DABCYL-(Gly-Arg-Ala-Val-Phe-Gln-Gly-Pro-Val-Gly)-EDANS. In the uncleaved peptide, the EDANS fluorescence was quenched by the proximal DABCYL moiety. When the peptide was cleaved, the quenching was relieved, and activity was measured as an increase in fluorescence signal. The tabulated data in the column designated kobs/[I] were measured from progress curves in enzyme start experiments.

Series [2] concerns HRV-14. The experiment in a line: Antirhinoviral H1-HeLa cell culture assay (XTT cell protection). It counts as cell-based, human rhinovirus. The following applies: Rhinovirus B, HRV14, H1-HeLa, HRV-14, H1-HeLa cells. The protocol:
(§1) In this cell protection assay, the ability of compounds to protect cells against HRV infection was measured by the XTT dye reduction method, which is described in Weislow et al., J. Natl. Cancer Inst. (1989), vol. 81, 577-586. H1-HeLa cells were infected with HRV-14 at a multiplicity of infection (m.o.i.) of 0.13 (virus particles/cell) or mock-infected with medium only. Infected or mock-infected cells were resuspended at 8×10^5 cells per ml, and incubated with appropriate concentrations of the compounds to be tested. Two days later, XTT/PMS was added to test plates and the amount of formazan produced was quantified spectrophotometrically at 450/650 nm. The EC50 value was calculated as the concentration of compound that increased the percentage of formazan production in compound-treated, virus-infected cells to 50% of that produced by compound-free, mock-infected cells. The 50% cytotoxic dose (CC50) was calculated as the concentration of compound that decreased the percentage of formazan produced in compound-treated, mock-infected cells to 50% of that produced by compound-free, mock-infected cells. The therapeutic index (TI) was calculated by dividing the CC50 value by the EC50 value.
(§2) All strains of human rhinovirus (HRV) for use in this assay were purchased from American Type Culture Collection (ATCC), except for HRV serotype-14 (produced from the infectious cDNA clone constructed by Dr. Robert Rueckert, Institute for Molecular Virology, University of Wisconsin, Madison, Wis.). HRV stocks were propagated and viral assays were performed in H1-HeLa cells (ATCC). Cells were grown in minimal essential medium with 10% fetal bovine serum, available from Life Technologies (Gaithersburg, Md.).

The subject of series [3] is HRV-1A. The description is as above. Type of series: cell-based, human rhinovirus. The note with it: Rhinovirus A, HRV1A, H1-HeLa cells. The protocol: as §1, §2
Series [4] deals with HRV-10. The series is described as above. Type of series: cell-based. The following applies: Human rhinovirus sp., HRV10; HRV-10, H1-HeLa cells. On the procedure: as §1, §2
A short description of series [5]: Cytotoxicity in mock-infected cells of the antirhinoviral assay (XTT). Type of series: cell-based. The following applies: human, H1-HeLa cells. On the procedure: as §1, §2
The test system of series [6] is H1-HeLa cells. The description is as above. It counts as cell-based. The protocol: as §1, §2
The subject of series [7] is HRV-25. Nature of the series: Antirhinoviral H1-HeLa cell culture assay (XTT cell protection). It counts as cell-based. The following applies: Human rhinovirus sp., HRV25; HRV-25, H1-HeLa cells. The protocol: as §1, §2
For series [8], the system named is HRV-39. Described as above. It counts as cell-based. The following applies: Human rhinovirus sp., HRV39; HRV-39, H1-HeLa cells. On the procedure:
as §1, §2

For series [9], the system named is HRV-3. The description is as above. Type of series: cell-based. The note with it: Human rhinovirus sp., HRV3; HRV-3, H1-HeLa cells. On the procedure:
as §1, §2

For series [10], the system named is HRV-9. The series is described as above. It counts as cell-based. The following applies: Human rhinovirus sp., HRV9; HRV-9, H1-HeLa cells. On the procedure: as §1, §2
For series [11], the system named is HRV-2. The series is described as above. The note with it: Rhinovirus A, HRV2; HRV-2, H1-HeLa cells. It counts as cell-based, human rhinovirus. The protocol:
as §1, §2

For series [12], the system named is HRV-16. The series is described as above. It counts as cell-based. The note with it: Human rhinovirus sp., HRV16; HRV-16, H1-HeLa cells. On the procedure: as §1, §2
Series [13] concerns HRV-87. Described as above. The note with it: Human rhinovirus sp., HRV87; HRV-87, H1-HeLa cells. Type of series: cell-based. The protocol:
as §1, §2

T1 sequence (P03303 1538-1719): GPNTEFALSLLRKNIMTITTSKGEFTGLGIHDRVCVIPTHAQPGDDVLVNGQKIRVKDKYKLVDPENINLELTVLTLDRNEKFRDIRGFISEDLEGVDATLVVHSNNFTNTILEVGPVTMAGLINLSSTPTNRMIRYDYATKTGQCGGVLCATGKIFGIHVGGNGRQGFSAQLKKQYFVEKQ

`CCOC(=O)/C=C/[C@H](C[C@@H]1CCNC1=O)NC(=O)[C@H](Cc1ccccc1)NC(=O)c1ccc(-c2ccccc2C(F)(F)F)[nH]1` [Compound 28, 5-(2-Oxo-pyrrolidin-3S-yl)-4S-(3-phenyl-2S-{[5-(2-trifluoromethyl-phenyl)-1H-pyrrole-2-carbonyl]-amino}-propionylamino)-pent-2(trans)-enoic acid ethyl ester]: the kinact/KI in series [1] stood at 340000 M⁻¹ s⁻¹. Further, the EC50 in series [2] was found to be 59 nM; in series [3], 213 nM; in series [4] it was 66 nM. Moreover, in series [5] (table line HRV-14), the CC50 at 2 days was more than 1000 nM. The CC50 in series [6] (table line HRV-1A) and in series [6] (table line HRV-10) was more than 1000 nM in each case.

On to `C#CC[C@H](NC(=O)c1ccc(-c2ccccc2C(F)(F)F)[nH]1)C(=O)N[C@H](/C=C/C(=O)OCC)C[C@@H]1CCNC1=O` [Compound 29, 5-(2-Oxo-pyrrolidin-3S-yl)-4S-(2S-{[5-(2-trifluoromethyl-phenyl)-1H-pyrrole-2-carbonyl]-amino}-pent-4-ynoylamino)-pent-2(trans)-enoic acid ethyl ester], for which the kinact/KI in series [1] was 103000 M⁻¹ s⁻¹. Further, the EC50 in series [2] was determined as 150 nM; in series [3] it was 54 nM; in series [4] it was 27 nM; in [7] it was 316 nM; in series [8], 180 nM; in [9], 65 nM. Besides, in series [10], the response was half-maximal at 119 nM (EC50). This compound also yielded a CC50 at 2 days in [5] (table line HRV-14) of more than 10000 nM. Also, the CC50 in series [6] (table line HRV-1A), in series [6] (table line HRV-3), in [6] (table line HRV-9), in series [6] (table line HRV-10), in [6] (table line HRV-25) and in series [6] (table line HRV-39) was more than 10000 nM throughout.

Turning to `C#CC[C@H](CC(=O)c1ccc(-c2ccccc2C(F)(F)F)[nH]1)C(=O)N[C@H](/C=C/C(=O)OCC)C[C@@H]1CCNC1=O` [Compound 36], the concentration giving a half-maximal response (EC50) in [3] worked out at 145 nM; in series [4], 330 nM; in series [7], 329 nM; in [8], 235 nM; in series [9] it was 145 nM; in [10], 144 nM. Further, in series [5] (table line HRV-14), the CC50 at 2 days was more than 10000 nM. The CC50 in [6] (table line HRV-1A), in series [6] (table line HRV-3), in series [6] (table line HRV-9), in [6] (table line HRV-10), in [6] (table line HRV-25) and in series [6] (table line HRV-39) was more than 10000 nM each time.

Regarding `C#CC[C@H](CC(=O)c1ccc(-c2ccccc2Cl)[nH]1)C(=O)N[C@H](/C=C/C(=O)OCC)C[C@@H]1CCNC1=O` [Compound 38, 4S-(2R-{2-[5-(2-Chloro-phenyl)-1H-pyrrol-2-yl]-2-oxo-ethyl}-pent-4-ynoylamino)-5-(2-oxo-pyrrolidin-3S-yl)-pent-2(trans)-enoic acid ethyl ester], in series [1], the kinact/KI is 33000 M⁻¹ s⁻¹. Besides, the EC50 in series [2] was determined as 136 nM; in series [3], 537 nM; in series [11], 353 nM; in series [4] it was 446 nM; in series [12] it was 1490 nM; in series [7], 1510 nM. Moreover, the EC50 in series [8] was 593 nM; in series [9], 605 nM; in [13], 97 nM; in [10] it was 885 nM. In addition, the CC50 at 2 days in [5] (table line HRV-1A) was more than 10000 nM. The CC50 in series [6] (table line HRV-2), in series [6] (table line HRV-3), in series [6] (table line HRV-9), in [6] (table line HRV-10), in series [6] (table line HRV-14) and in series [6] (table line HRV-16) was more than 10000 nM in each case. Besides, the CC50 in [6] (table line HRV-25), in [6] (table line HRV-39) and in [6] (table line HRV-87) was more than 10000 nM throughout.

In the case of `C#CC[C@H](CC(=O)c1ccc(-c2ccccc2C)[nH]1)C(=O)N[C@H](/C=C/C(=O)OCC)C[C@@H]1CCNC1=O` [Compound 39, 5-(2-Oxo-pyrrolidin-3S-yl)-4S-{2R-[2-oxo-2-(5-o-tolyl-1H-pyrrol-2-yl)-ethyl]-pent-4-ynoylamino}-pent-2(trans)-enoic acid ethyl ester], the kinact/KI in series [1] worked out at 20100 M⁻¹ s⁻¹. Besides, the EC50 was determined as 214 nM in series [2]; 338 nM in series [3]; 214 nM in series [11]; 428 nM in series [4]; 952 nM in series [12]; 1320 nM in series [7]. Further, the EC50 came to 518 nM in [8], 595 nM in series [9], 83 nM in [13] and 665 nM in series [10]. The same compound had a CC50 at 2 days in [5] (table line HRV-1A) of more than 10000 nM. Besides, the CC50 in [6] (table line HRV-2), in [6] (table line HRV-3), in [6] (table line HRV-9), in series [6] (table line HRV-10), in series [6] (table line HRV-14) and in [6] (table line HRV-16) was more than 10000 nM throughout. Also, the CC50 in series [6] (table line HRV-25), in [6] (table line HRV-39) and in series [6] (table line HRV-87) was more than 10000 nM each time.

Consider `CCOC(=O)/C=C/[C@H](CCC(N)=O)NC(=O)[C@H](Cc1ccccc1)NC(=O)c1ccc(-c2cc(OC)ccc2OC)[nH]1` [Compound 7, 6-Carbamoyl-4S-(2S-{[5-(2,5-dimethoxy-phenyl)-1H-pyrrole-2-carbonyl]-amino}-3-phenyl-propionylamino)-hex-2-enoic acid ethyl ester], for which the kinact/KI in series [1] came to 5200 M⁻¹ s⁻¹. This compound returned an EC50 in series [2] of 300 nM. This compound came in with a CC50 at 2 days in series [5] (table line HRV-14) of more than 10000 nM.
